Assay results reported in US20240381872A1, “SUBSTITUTED 2,3-DIHYDRO[1,3]THIAZOLO[4,5-B]PYRIDINES, SALTS THEREOF AND THEIR USE AS HERBICIDALLY ACTIVE SUBSTANCES” (BAYER AKTIENGESELLSCHAFT, priority 2021, published 2024).

What was measured:
Format in all cases: in vivo
Kochia scoparia (KCHSC) [1] = experiment: Herbicidal pre-emergence action, section C (Table C13); settings: application rate 320 g/ha; visual grading after ca. 3 weeks
Source text: (§1) Seeds of mono- and dicotyledonous weed plants and crop plants were sown, in plastic or organic planting pots, in sandy loam and covered with soil. The compounds according to the invention, formulated in the form of wettable powders (WP) or as emulsifiable concentrates (EC), were applied to the surface of the covering soil as aqueous suspension or emulsion, with the addition of 0.5% of an additive, at an application rate of 600 l of water/ha (converted). Following treatment, the pots were placed in a greenhouse and kept under optimum growth conditions for the test plants. The visual grading of the damage to the test plants was carried out after ca. 3 weeks in comparison to untreated controls (herbicidal effect in percent (%): 100% effect=plants have died off, 0% effect=as control plants).

Viola tricolor (VIOTR) [2] = experiment: Herbicidal post-emergence action, section E (Table E10); settings: application rate 320 g/ha, visual assessment ca. 3 weeks after spraying
Source text: (§2) Seeds of mono- and dicotyledonous weed plants and crop plants were sown, in plastic or organic planting pots, in sandy loam, covered with soil and grown in a greenhouse under controlled growth conditions. 2 to 3 weeks after sowing, the test plants were sprayed in the single-leaf stage. The compounds according to the invention, formulated in form of wettable powders (WP) or as emulsifiable concentrates (EC), were sprayed onto the green plant parts as aqueous suspension or emulsion, with the addition of 0.5% of an additive, at an application rate of 600 l of water/ha (converted). The test plants were placed in the greenhouse for ca. 3 weeks under optimum growth conditions, and then the effect of the preparations was assessed visually in comparison with untreated controls (herbicidal effect in percent (%): 100% effect=plants have died off, 0% effect=as control plants).

Kochia scoparia (KCHSC) [3] = experiment: Herbicidal post-emergence action, section E (Table E11); settings: application rate 320 g/ha, visual assessment ca. 3 weeks after spraying
Source text: as §2

Setaria viridis (SETVI) = experiment: Herbicidal post-emergence action, section E (Table E8); settings: application rate 320 g/ha, visual assessment ca. 3 weeks after spraying
Source text: as §2

[4] = system: Alopecurus myosuroides (ALOMY); experiment: Herbicidal post-emergence action, section B (Table B2); settings: application rate 1280 g/ha; rated visually about 3 weeks after treatment vs untreated controls; 100% = plants have died, 0% = like control plants
Experimental: (§3) Seeds of mono- and dicotyledonous weed plants were placed in plastic pots in sandy loam soil (doubly sown with in each case one species of mono- or dicotyledonous weed plants per pot), covered with soil and cultivated in a greenhouse under controlled growth conditions. 2 to 3 weeks after sowing, the test plants were treated at the one-leaf stage. The compounds of the invention, formulated in the form of wettable powders (WP) or as emulsion concentrates (EC), were applied onto the green parts of the plants as aqueous suspension or emulsion with addition of 0.5% additive at a water application rate of 600 liters per hectare (converted). After the test plants had been kept in the greenhouse under optimum growth conditions for about 3 weeks, the activity of the preparations was rated visually in comparison to untreated controls. For example, 100% activity=the plants have died, 0% activity=like control plants.

[5] = system: Matricaria inodora (MATIN); experiment: Herbicidal post-emergence action, section B (Table B6); settings: application rate 1280 g/ha; visual rating about 3 weeks after treatment vs untreated controls
Experimental: as §3

Viola tricolor (VIOTR) [6] = experiment: Herbicidal pre-emergence action, section C (Table C9); settings: application rate 320 g/ha; visual grading after ca. 3 weeks
Source text: as §1

Brassica napus (BRSNW) = experiment: Post-emergence effects on crop plants, section F (Table F5); settings: crop plant damage, application rate 80 g/ha
Outline: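 After sowing in sandy loam and 2–3 weeks' greenhouse growth, single-leaf plants received foliar sprays (WP or EC, 0.5% additive, 600 l/ha water, ≤320 g/ha). Around 3 weeks on, herbicidal effect was estimated by eye, 0% meaning like controls and 100% meaning plants died.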

Row | Compound | pre-emergence activity against KCHSC in % (Kochia scoparia (KCHSC) [1]) [%] | post-emergence activity against VIOTR in % (Viola tricolor (VIOTR) [2]) [%] | post-emergence activity against KCHSC in % (Kochia scoparia (KCHSC) [3]) [%] | post-emergence activity against SETVI in % (Setaria viridis (SETVI)) [%] | post-emergence activity against ALOMY [4] [%] | post-emergence activity against MATIN in % [5] [%] | pre-emergence activity against VIOTR in % (Viola tricolor (VIOTR) [6]) [%] | post-emergence activity against BRSNW in % (Brassica napus (BRSNW)) [%]
1 | Cc1cc2c(nc1-c1ccccc1F)N(C(=O)C13CCCC1C(Cl)=NO3)CS2 (stereo not shown) [Example I-104] | 90 | 80 | 90 | 90 | 90 | 90 | 80 | –
2 | Cc1cc2c(nc1-c1ccccc1)N(C(=O)C1(C)CC(Cl)=NO1)CS2 (stereo not shown) [Example I-088] | 90 | 80 | 80 | – | – | 90 | 90 | 0
